The values that follow come from US20090130064A1, “DIFFERENTIATION OF STEM CELLS AND STABILIZATION OF PHENOTYPICAL PROPERTIES OF PRIMARY CELLS” (priority 2004, published 2009).

Data set [1] has as its system glutathione S-transferase (GST). The experiment in a line: Total cytosolic GST activity in cultured rat hepatocytes. The settings on record: TSA starting at 4 hours; day 4 and 7. It is filed as cell-based. The source says:
Hepatocytes were isolated from male Sprague-Dawley rats by a two-step collagenase perfusion as described (De Smet et al. In ‘Methods in Molecular Biology, Vol. 107: Cytochrome P450 Protocols’, Philips IR and Shephard E A, eds., p.p 295-301, Humana Press, Totowa, 1998). Hepatocytes were cultivated in monolayer cultures with Willam's E Medium (WE) for 7 days. […] The maintenance of differentiation characteristics was studied after 2, 4, and 7 days (D2, D4, D7) of culture.
In order to investigate Phase II biotransformation, total cytosolic glutathione S-transferase (GST) activity and activities of individual GSTA, GSTP, and GSTM iso-enzymes were measured using standard techniques known in the art. (i.e., measuring conjugation of reduced glutathione with 1-chloro-2,4-dinitrobenzene for total GST; measuring conjugation of reduced glutathione with 7-chloro-4-nitrobenzo-2-oxa-1,3-diazole for GSTA activity; measuring conjugation of reduced glutathione with ethacrynic acid for GSTP activity; and measuring conjugation of reduced glutathione with 1,2-dichloro-4-nitrobenzene for GSTM activity).

For data set [2], the system named is gap junctional intercellular communication. The experiment in a line: GJIC scrape loading/dye transfer assay. It is filed as cell-based, rat. The following applies: 1 μM TSA; from D4 on. The protocol: (§1) In all conditions, the hepatocytes were cultivated as a monolayer configuration, and samples were taken at days 1, 4 and 7 (D1, D4, D7) of the cultivation time.
Scrape loading/dye transfer assay was performed as described by el-Fouly et al., 1987: 422-430. In brief, hepatocytes were scraped in the presence of 0.05% m/V Lucifer Yellow and incubated for 5 minutes at 37° C. The dye was then removed, cells were rinsed twice with PBS and fixed with 4% m/V paraformaldehyde. Evaluation was performed by fluorescence microscopy. The distance traveled by Lucifer Yellow from the scrape was used as a parameter to evaluate GJIC functionality.

For the next data set, the system named is Cx43. The experiment in a line: Cx43 expression and localization (immunoblotting, immunocytochemistry) in rat hepatocytes. It is filed as cell-based. The settings on record: 1 μM TSA. On the procedure: as §1
Proteins (25 or 50 μg) were resolved on SDS-PAGE (7.5, 10 or 12%) and blotted afterwards onto nitrocellulose membranes. After blocking with non-fatty milk, membranes were incubated with appropriate concentrations of primary and secondary antibodies (HRP labeled). Proteins were detected using the ECL detection system (Amersham Biosciences). Primary antibodies: Cx26 (Zymed, 1/250), Cx32 (Sigma, 1/500), Cx43 (Zymed, 1/100).
Hepatocytes were fixed with cold ethanol, peremeabilised with Triton X-100 (Sigma) and blocked with non-fatty milk. Following incubation with appropriate concentrations of primary and secondary antibodies (FITC or TRITC labeled), samples were mounted with DAPI-containing Vectashield (Vector Laboratories). Detection was performed by fluorescence microscopy (Leica DMR/XA).

The next data set concerns rat BMSC. The experiment in a line: DNA synthesis by [methyl-3H] thymidine incorporation in differentiating rat BMSC. It is filed as cell-based. On the procedure:
[methyl-3H] thymidine (25 μCiμmol, 2 μCi/ml) incorporation into trichloroacetic acid precipitated-DNA (Amersham Inc) was measured.
BMSC were, 24 h after splitting; cultivated in the presence of LSP cytokines, added either as a cocktail or separately on 10 ng/ml FN at 2.465 10^3 cells/cm^2. […] Media were changed every three days. Samples were taken 2, 4, 6, 12 and 18 h after splitting or media change. Cells were stimulated for 2 h before sampling with 2 μCi [methyl-^3H] thymidine (Amersham Pharmacia Biotech)/ml medium. [methyl-^3H] thymidine incorporation was measured using a scintillation counter (Wallac 1410) with a counting efficiency of 62.4%.
In general terms: Dividing cells build labelled thymidine or BrdU into new DNA.

Another data set relates to ERK1/2. The experiment in a line: Western blotting of ERK1/2 phosphorylation in synchronized hepatocytes. It is filed as cell-based, rat. The settings on record: 50 μM + EGF; initial 30 min. On the procedure: Total cell extracts were prepared as described previously (Papeleu et al. J Hepatol 39: 374-382, 2003) and proteins (25 or 50 μg per lane) were separated electrophoretically by SDS-PAGE and electroblotted onto nitrocellulose membranes (Amersham Pharmacia Biotech, Buckinghamshire, UK). Equal sample loading was verified by immersion of the membranes in Ponceau S. Unspecific binding sites were blocked with 5% skim milk/Tris-buffered saline. Incubations with primary antibodies were performed overnight at 4° C. under gentle shaking. Proteins were detected using the ECL detection system (Amersham Pharmacia Biotech, Buckinghamshire, UK) according to the manufacturer's recommendations.
Early cell cycle events can be triggered by distinct signalling pathways, activated by EGF, namely: the MEK/ERK, the mTOR/p70S6k, and the Pak1 pathways. Eventually, they all converge on cyclin D1 and play thus an essential role in the regulation of this critical cell cycle protein. […] This was done by culturing the hepatocytes in the absence of EGF for 48 hours, consequently stimulating them with EGF and exposing them to 50 μM 4-Me2N-BAVAH for 0.5, 1 and 3 hours before harvesting. Shortly after stimulation of synchronized primary hepatocytes with EGF, a rapid and sustained phosphorylation of ERK1/2 was observed (FIG. 20A). […]
Background: Immunoblotting shows a protein as a band on a membrane.

Another data set has as its system cyclin D1. The data set can be described thus: Western blotting of cyclin D1 in primary rat hepatocytes. It is filed as cell-based. The settings on record: 50 μM; 72 hours. The source says:
Male outbred Sprague-Dawley rats (200-300 g, Iffa Credo, Brussels, Belgium) were kept under controlled environmental conditions (12-hr light-dark cycle) and fed a standard diet (Animafabo A04, water ad libitum). Hepatocytes were isolated by a two-step collagenase perfusion as described (De Smet et al. In ‘Methods in Molecular Biology, Vol. 107: Cytochrome P450 Protocols’, Philips I R and Shephard E A, eds., pp 295-301, Humana Press, Totowa, 1998). Cell liability was >90% as determined by trypan blue exclusion. Cells (0.4×10^5 cells/cm^2) were plated in MEM/M199 (3:1), containing BSA (1 mg/ml), bovine insulin (10 μg/ml), L-glutamine (2 mM), FBS (10% v/v) and antibiotics (7.3 IU/ml benzyl penicillin, 50 μg/ml streptomycin sulphate, 50 μg/ml kanamycin monosulphstep and 10 μg/ml sodium ampicillin). Four hours after plating, serum-containing medium was removed and fresh serum-free medium was added to the cultures. Culture medium was refreshed daily. […]
Total cell extracts were prepared as described previously (Papeleu et al. J Hepatol 39: 374-382, 2003) and proteins (25 or 50 μg per lane) were separated electrophoretically by SDS-PAGE and electroblotted onto nitrocellulose membranes (Amersham Pharmacia Biotech, Buckinghamshire, UK). […] Proteins were detected using the ECL detection system (Amersham Pharmacia Biotech, Buckinghamshire, UK) according to the manufacturer's recommendations.

Where [3] appears, read: 1 μM TSA first from 168 h cultivation on, sequential.

Turning to `CC(C=CC(=O)NO)=CC(C)C(=O)c1ccc(N(C)C)cc1` (stereo not drawn) [TSA], the “total GST activity versus EtOH treated controls” value in data set [1] is “significantly higher”. For the same compound, in data set [2], the GJIC activity entry was “increases GJIC activity”. Further, in the data set on Cx43, the “expression of Cx43” value was “induces the expressions”. The “localization of Cx43” value with Cx43 is “cytosolic localization”. Also, the “cytotoxicity by microscopic analysis” value in the data set on rat BMSC is reported as “cytotoxicity”. Further, the “cell death by microscopic analysis” value in the data set with rat BMSC (1 μM TSA added from 24 and 96 h on, sequential) is on record as “cell death”; in the data set with rat BMSC (setting [3]), “No death cells were observed”; in the data set with rat BMSC (1 μM TSA from 168 h, cocktail, day 7), “no cell death had occurred”. The “[methyl-3H] thymidine incorporation” value with rat BMSC (setting [3]) was “no [methyl-^3H] thymidine incorporation”; with rat BMSC (first addition of 1 μM TSA from 168 h of cultivation on, cocktail), “no [methyl-^3H] thymidine”. In addition, in the data set on rat BMSC (1 μM TSA from 24, 96 and 168 h on, sequential LSP cytokines), the “DNA synthesis compared with control (sequential without TSA)” value is given as “decrease of the DNA synthesis”. In addition, the “DNA synthesis compared with control (cocktail-TSA)” value in the data set on rat BMSC (1 μM TSA from 24 and 96 h of cultivation on, cocktail of LSP cytokines) is listed as “increase of the DNA synthesis”. Also, the “[methyl-3H] thymidine incorporation (DNA synthesis)” value in the data set on rat BMSC (5 and 25 μM TSA) was “no incorporation”.

Regarding `CN(C)c1ccc(C(=O)NCCCCC(=O)NO)cc1` [4-Me2N-BAVAH, 5-(4-dimethylaminobenzoyl)-aminovaleric acid hydroxamide], the ERK1/2 phosphorylation result with ERK1/2 is reported as “increase in ERK1/2 phosphorylation”. Besides, the “cyclin D1 protein accumulation upon growth factor stimulation” value in the data set on cyclin D1 was “completely failed to accumulate cyclin D1 protein”.
